According to patent publication US7572923B2, “Indirubin derivatives having anticancer property against human cancer cell line” (Anygen Co., Ltd., priority 2004, dated 2009):

What was measured:
[1] = system: human lung cancer cell line (A549); assay: Inhibition of cancer cell line proliferation, A549; type: cell-based; details: 96 h, 3˜4 days incubation, absorbance at 515 nm
Experimental: (§1) For measuring the proliferation inhibition by indirubin compound, the method disclosed in K. Likhitwitayawuid et al. Journal. Nat. Prod. […] Followings are simple description of this method. The cancer cell line is diluted into 5×10^4 cfu/ml. Then, various concentrations of test compounds are added to 96 well microtiter plate containing diluted cell line. After incubating test plate for 3˜4 days at 37° C., the test plate is dried and Tris-base is added. Then, using ELISA plate detector, the absorbance at 515 nm is measured. IC50 is measured by non-linear regression method.

[2] = system: human stomach cancer cell line (SNU-638); assay: Inhibition of cancer cell line proliferation, SNU-638; type: cell-based; details: 96 h, 3˜4 days incubation, absorbance at 515 nm
Experimental: as §1

[3] = system: human colon cancer cell line (Col2); assay: Inhibition of cancer cell line proliferation, Col2; type: cell-based; details: 96 h, 3˜4 days incubation, absorbance at 515 nm
Experimental: as §1

[4] = system: human abdominal cavity cancer cell line (HT 1080); assay: Inhibition of cancer cell line proliferation, HT 1080; type: cell-based; details: HT-1080, 96 h, HT108, 3˜4 days incubation, absorbance at 515 nm
Experimental: as §1

[5] = system: human leukemia cell line (HL-60); assay: Inhibition of cancer cell line proliferation, HL-60; type: cell-based; details: HL-60, 96 h, HL60, 3˜4 days incubation, absorbance at 515 nm
Experimental: as §1

human cancer cell line = assay: Inhibition of cancer cell line proliferation, overall conclusion; type: cell-based; details: conclusion from Table 2
Experimental: as §1

[6] = system: leukemia cell line (HL-60); assay: Differentiation inducing effect, NBT reduction method; type: cell-based, human; details: for % of Differentiation: 3 days
Experimental: For measuring the differentiation inducing effect to acute bone merrow leukemia cell line (HL-60) by indirubin AGM compound, NBT (nitroblue tetrazolium) reduction reaction method is employed. The leukemia cell line is diluted into 2×10^5 cfu/ml. […] Incubated cells are washed with phosphate buffered saline (PBS). Then, they are further incubated in PBS solution containing 0.1% NBT and 200 ng/ml of PMA (phorbol 12-myristate 13-acetate) for 30 minutes at 37° C. Incubated cells are centrifuged and collected cells are washed with PBS solution. Using cell number counter, differentiated cells forming nitroblue formazan among total cells are counted.

[7] = system: human leukemia cell line (HL-60); assay: Differentiation with low concentration 1,25-(OH)2D3 or ATRA, NBT reduction method; type: cell-based
Experimental: For measuring the differentiation inducing effect to acute bone merrow leukemia cell line (HL-60) by indirubin AGM compound, NBT (nitroblue tetrazolium) reduction reaction method is employed. The leukemia cell line is diluted into 2×10^5 cfu/ml. After treating 20 μM and 1 μM concentrations of test compounds, test plate is incubated for 3 days at 37° C. in 5% CO2 incubator. Incubated cells are washed with phosphate buffered saline (PBS). Then, they are further incubated in PBS solution containing 0.1% NBT and 200 ng/ml of PMA (phorbol 12-myristate 13-acetate) for 30 minutes at 37° C. Incubated cells are centrifuged and collected cells are washed with PBS solution. Using cell number counter, differentiated cells forming nitroblue formazan among total cells are counted.
Next, we test if AGM compound of present invention can synergically induce the differentiation of acute bone merrow leukemia cell line when it is treated with low concentration of 1,25-dihydroxyvitamin D3[1,25-(OH)2D3] or all-trans retinoic acid (ATRA) known as differentiation inducing agent. […] […] As a positive control, conventional differentiation inducing agent is used.

[8] = system: human cell line (HT 1080); assay: Inhibition of cancer cell line proliferation, HT 1080; type: cell-based; details: HT-1080, 96 h, read-out: IC50 HT108
Experimental: as §1

RK3E-Ras cells [9] = assay: Cell viability by MTT assay; type: cell-based, rat; details: 1, 10, 20, 40 μM, 6, 12, 24, 48 hours
Experimental: To measure the influence to cell viability by indirubin derivative, RK3E-Ras cell, 1×10^5/well is seeding on 24 well plate. After incubation of cells for 12˜24 hours, indirubin derivative 011 in various concentration (1 μM, 10 μM, 20 μM, 40 μM) are treated for 6, 12, 24, 48 hours respectively. As control, cells without treating any compound are employed. […] FIG. 1 show the decline of cell viability after treatment of indirubin derivative 011.
According to the same condition in Example 3, other indirubin derivative 012, 030 are treated to measure the influence to cell viability.

RK3E-Ras cells [10] = assay: Annexin-V-FLUOS/propidium iodide double staining assay for apoptosis; type: cell-based, rat; details: 1 μM, 24 hours
Experimental: Annexin-V-FLUOS/propidium iodide double staining assay is a sensitive method for measuring apoptosis in cell level by detecting exposed phosphatidyl serine in apoptotic cell membrane.
RK3E-Ras cell is seeding in 6×10^5 level on cover side. Indirubin derivatives 011, 012 and 030 are treated in 1 μM concentration for 24 hours. As a control, cells without treating any compound are employed. After 24 hours, cells are annexin-V-FLUOS/propidium iodide double stained using annexin-V-FLUOS staining kit. […] It is confirmed that apoptosis of cells treated with indirubin derivatives 011, 012 and 030 is processed.

RK3E-ras solid tumor [11] = assay: Tumor suppression in RK3E-ras tumor induced rats; type: in vivo; details: Sprague Dawley rat; for size and volume of tumor: 100 mM injected 5 times in every other day
Experimental: RK3E cell is one of rat kidney cell and it is immortalized by EA1 oncogene. […] Inventors prepares stable RK3E-k-ras cell line by infection of retroviral expression vector to express mutant k-ras of oncogene. Prepared cell line is intramuscularly infected to Sprague Dawley rat to induce tumor. […] Tumor suppression effect by indirubin derivatives 011, 012 and 030 is measured through tumor induced rats.
(§2) 1×10^7 of RK3E-ras cells is injected to Sprague Dawley rat to induce solid tumor for 5 days and experimental groups of animals are employed by size and volume of tumor in these animals. 100 mM of indirubin derivative is injected to experimental group of animals 5 times in every other day.
Tumor is measured by vernier caliper and the volume of tumor is calculated by Carlsso calculation method {V=1/2(a.b^2), a: long axis, b: short axis}.

RK3E-ras solid tumor [12] = assay: Histological appearance of tumor lesion, H&E stain; type: in vivo, Sprague Dawley rat; details: rat tumor tissue
Experimental: as §2
To observe histological appearance of tumor lesion after indirubin derivatives 011, 012 and 030 treatment, tumor tissue is immobilized in para-formaldehyde solution and is treated with paraffin. Then, H&E stain is carried out. […] From this experiment, indirubin derivatives of the present invention induce apoptosis of tumor, which results in the suppression of tumor formation in tissue level. FIG. 8 is photography showing the appearance of tumor lesion after treating indirubin derivatives 011, 012 and 030 of present invention.

RK3E-Ras cells [13] = assay: DNA fragmentation, agarose gel electrophoresis; type: cell-based, rat; details: 10 μM
Experimental: We test if the decline of cell viability by indirubin derivative 011 relates to apoptosis of cell or not. Genomic DNA from cells treated with indirubin derivative 011 is isolated and fragmented. RK3E-Ras cell, 6×10^5/well is seeding on 6 well plate. After incubation of cells for 12˜24 hours, 10 μM of indirubin derivative 011 is treated with cells. As a control, cells without treating any compound or cells treating DMSO in same concentration are employed.

[14] = 1 μM compound with 5 nM of 1,25-(OH)2D3
[15] = 1 μM compound with 50 nM of ATRA
[16] = 0.2 μM compound with 5 nM of 1,25-(OH)2D3
[17] = 0.2 μM compound with 50 nM of ATRA

Row | Compound | IC50 [1] [µM] | IC50 [2] [µM] | IC50 [3] [µM] | IC50 [4] [µM] | IC50 [5] [µM] | inhibitor against proliferation of human cancer cell line (human cancer cell line) | % of Differentiation ([6]; 1 μM compound) [%] | % of Differentiation, 1,25-(OH)2D3 [7, 14] [%] | % of Differentiation, all-trans RA [7, 15] [%] | IC50 [8] [µM] | cell viability according to increase of compound concentration (RK3E-Ras cells [9]) | annexin-V green fluorescence staining versus control (RK3E-Ras cells [10]) | size and volume of tumor (RK3E-ras solid tumor [11]) | histological appearance of tumor lesion (RK3E-ras solid tumor [12]) | % of Differentiation ([6]; 20 μM compound) [%] | other results
1 | O=C1Nc2ccc(F)cc2C1=C1Nc2ccccc2C1=NO [AGM012, 5′-fluoro-1H,1′H-[2,3′] biindolylidene-3,2′-dione 3-oxime] | 13.2 | 2.06 | 64.2 |  | 89.3 | effective inhibitor | 32.71 ± 1.73 | 24.29 ± 1.34 | 54.81 ± 1.65 | 3.41 | rapid decline of cell viability | far more stained by green fluorescence than cells of control group | decrease | necrosis or calcification of tumor is observed |  | 
2 | O=C1Nc2ccc(F)cc2C1=C1Nc2ccccc2C1=O [AGM010, 5′-fluoro-1H,1′H-[2,3′] biindolylidene-3,2′-dione] | 96.8 | 40.3 | > 100 |  | > 100 |  | 7.53 ± 1.02 | 78.44 ± 6.88 | 75.08 ± 6.80 | > 100 |  |  |  |  | 13.01 ± 0.14 | 
3 | CC(C)(C)C(=O)Nc1ccc2c(c1)C(=C1Nc3ccccc3C1=NO)C(=O)N2 [AGM030, 5-NH-trimethylacetyl-indirubin-3-oxime] |  |  |  |  |  |  |  |  |  |  | rapid decline of cell viability | far more stained by green fluorescence than cells of control group | decrease | necrosis or calcification of tumor is observed |  | 
4 | Cc1ccc2c(c1)C(=C1Nc3ccccc3C1=O)C(=O)N2 [AGM024, 5′-methyl-1H,1′H-[2,3′] biindolylidene-3,2′-dione] | > 100 | > 100 | > 100 |  | > 100 |  | 24.89 ± 6.06 | 41.66 ± 0.40 | 51.01 ± 0.88 | > 100 |  |  |  |  | 14.38 ± 0.42 | 
5 | Cc1cc(C)c2c(c1)C(=C1Nc3ccccc3C1=O)C(=O)N2 [AGM027, 5′,7′-dimethyl-1H,1′H-[2,3′] biindolylidene-3,2′-dione] | > 100 | > 100 | > 100 |  | > 100 |  | 9.45 ± 0.92 | 21.74 ± 1.90 | 43.19 ± 1.73 | > 100 |  |  |  |  | 4.75 ± 0.41 | 

The next lines start with results.

Row | IC50 [1] [µM] | IC50 [2] [µM] | IC50 [3] [µM] | IC50 [4] [µM] | IC50 [5] [µM] | Compound | inhibitor against proliferation of human cancer cell line (human cancer cell line) | % of Differentiation ([6]; 1 μM compound) [%] | % of Differentiation, 1,25-(OH)2D3 [7, 14] [%] | % of Differentiation, all-trans RA [7, 15] [%] | IC50 [8] [µM] | cell viability according to increase of compound concentration (RK3E-Ras cells [9]) | annexin-V green fluorescence staining versus control (RK3E-Ras cells [10]) | size and volume of tumor (RK3E-ras solid tumor [11]) | histological appearance of tumor lesion (RK3E-ras solid tumor [12]) | % of Differentiation ([6]; 20 μM compound) [%] | other results
6 | 12.1 | 6.22 | 16.8 | 10.8 | 4.81 | O=C1Nc2ccc(Cl)cc2C1=C1Nc2ccccc2C1=NO [AGM014, 5′-chloro-1H,1′H-[2,3′] biindolylidene-3,2′-dione 3-oxime] | effective inhibitor | 40.97 ± 1.19 | 21.72 ± 1.22 | 72.40 ± 3.05 |  |  |  |  |  |  | 
7 | 33.2 | 21.1 | 31.2 |  | 59.3 | Nc1ccc2c(c1)C(=C1Nc3ccccc3C1=O)C(=O)N2 [AGM029, 5′-amino-1H,1′H-[2,3′] biindolylidene-3,2′-dione] | effective inhibitor | 45.05 ± 0.59 | 79.03 ± 0.55 | 78.81 ± 0.77 | 5.41 |  |  |  |  |  | induction of differentiation ([6]; at 20 μM concentration): excellently induces the differentiation
8 | 5.43 | 1.21 | 25.5 | 5.87 | 9.23 | O=C1Nc2ccc([N+](=O)[O-])cc2C1=C1Nc2ccccc2C1=NO [AGM011, 5′-nitro-1H,1′H-[2,3′] biindolylidene-3,2′-dione 3-oxime] | effective inhibitor |  |  |  |  | rapidly declined | far more stained by green fluorescence than cells of control group | decrease | necrosis or calcification of tumor is observed |  | % of Differentiation ([6]; 0.2 μM compound): 24.02 ± 0.85%; % of Differentiation, 1,25-(OH)2D3 [7, 16]: 31.79 ± 0.87%; % of Differentiation, all-trans RA [7, 17]: 34.87 ± 0.74%; DNA fragmentation (RK3E-Ras cells [13]; 12 hours): some DNA fragmentation occurs; DNA fragmentation (RK3E-Ras cells [13]; 24 hours): clear DNA fragmentation is detected; progress of apoptosis (RK3E-Ras cells [10]; FIG. 4): fast processed; suppression against tumor (tumor volume) (RK3E-ras solid tumor [11]; tumor volume by vernier caliper, V=1/2(a.b^2)): 80%
9 | 23.2 | 12.1 | 44.2 | 4.41 | 69.3 | O=C1Nc2ccc([N+](=O)[O-])cc2C1=C1Nc2ccc(Br)cc2C1=NO [AGM023, 5-bromo-5′-nitro-1H,1′H-[2,3′] biindolylidene-3,2′-dione 3-oxime] | effective inhibitor |  |  |  |  |  |  |  |  |  | % of Differentiation ([6]; 0.2 μM compound): 18.38 ± 0.27%; cytotoxicity [7]: some cytotoxicity; induction of differentiation with conventional differentiation inducing agent ([7]; 0.2 μM): high induction of differentiation; % of Differentiation, 1,25-(OH)2D3 [7, 16]: 89.76 ± 0.88%; % of Differentiation, all-trans RA [7, 17]: 90.85 ± 0.36%
